The record followed here is patent US10239851B2 (priority 2014, dated 2019).

Where two headings read alike, the source gives them in different places.

For data set [1], the system named is human prostate cancer PC-3. Particulars: PC-3 xenograft, nude mice, 33.6 mg/kg, D0 IV, single dose; for Tumor volume (mm^3) (D0): D0 (baseline at grouping); for Tumor inhibitory percent (%) D20: P(D20)=0.000 vs control.
Description: Test of the inhibitory activity of the water soluble docetaxel derivatives on subcutaneously xenografted tumor of human prostate cancer PC-3 in nude mice: evaluating and comparing the inhibitory activity of the water soluble docetaxel derivatives and docetaxel on subcutaneously xenografted tumor of human prostate cancer PC-3 in nude mice.
Human prostate cancer PC-3 cells were subcutaneously inoculated into nude mice. After the tumor volume reached 100-150 mm^3, the animals were randomly divided into several groups, and administered with the water soluble docetaxel derivatives of the present invention and docetaxel, respectively once on the same day (D0). The tumor volume was measured 2-3 times per week, the animals were weighed and the data were recorded until day 20 (D20) after grouping.
(§1) The tumor volume (V) was calculated according to the equation: V=½×a×b^2, wherein a and b represent the length and the width, respectively.
(§2) T/C (%)=(T−T0)/(C−C0)×100, wherein T and C represent the tumor volume at the end of the experiment; and T0 and C0 represent the tumor volume at the beginning of the experiment.
A short description of data set [2]: In vitro dissociation of the water soluble taxane derivatives in blood plasma of rat. The format is in vitro ADME, SD rats. Particulars: 37° C. The procedure:
The obtained water soluble taxane derivatives were formulated as 0.2 mg/ml aqueous solutions. […] After 2 min, 5 min and 10 min of incubation, 0.2 ml of solutions were respectively taken from each of the samples, and added to acetonitrile (0.4 ml) cooled to −20° C. for precipitation of protein.

Data set [3] is described as follows: In vitro dissociation of the water soluble taxane derivatives in blood plasma of rabbit. The format is in vitro ADME, New Zealand white rabbits. Particulars: 37° C. The procedure:
The obtained water soluble taxane derivatives were formulated as 0.2 mg/ml aqueous solutions. […] After 5 min, 20 min and 60 min of incubation, 0.2 ml of solutions were respectively taken from each of the samples, and added to acetonitrile (0.4 ml) cooled to −20° C. for precipitation of protein.

The subject of data set [4] is human prostate cancer PC-3. Particulars: PC-3 xenograft, nude mice; 13 mg/kg, D0 IV, single dose; D20.
Description: Test of the inhibitory activity of the water soluble cabazitaxel derivatives on subcutaneously xenografted tumor of human prostate cancer PC-3 in nude mice: evaluating and comparing the inhibitory activity of the water soluble cabazitaxel derivatives and cabazitaxel on subcutaneously xenografted tumor of human prostate cancer PC-3 in nude mice.
Human prostate cancer PC-3 cells were subcutaneously inoculated into nude mice. After the tumor volume reached 100-150 mm^3, the animals were randomly divided into several groups, and administered with the water soluble cabazitaxel derivatives of the present invention and cabazitaxel, respectively once on the same day (D0). The tumor volume was measured 2-3 times per week, the animals were weighed and the data were recorded until day 20 (D20) after grouping.
as §1, §2
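For Tumor inhibitory percent (%) D20 in this document: human prostate cancer PC-3 cells implanted under the skin of nude mice to form the xenograft.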
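For Tumor volume (mm^3) (D0) in this document: human prostate cancer PC-3 cells implanted under the skin of nude mice to form the xenograft.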
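For Tumor volume (mm^3) (D20) in this document: human prostate cancer PC-3 cells implanted under the skin of nude mice to form the xenograft.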
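For Weight change (%) D6 in this document: human prostate cancer PC-3 cells implanted under the skin of nude mice to form the xenograft.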

Regarding `CC(=O)O[C@@]12CO[C@@H]1C[C@H](O)[C@@]1(C)C(=O)[C@H](O)C3=C(C)[C@@H](OC(=O)[C@H](OC(=O)[C@@H](CCN(C)C)C(F)(F)F)[C@@H](NC(=O)OC(C)(C)C)c4ccccc4)C[C@@](O)([C@@H](OC(=O)c4ccccc4)[C@H]21)C3(C)C.CS(=O)(=O)O` [Compound 26, 2′-O-[4-(N,N-dimethyl)amino-2(R)-2-trifluoromethylbutyryl] docetaxel methanesulfonate], the “T/C (%) D20” value in data set [1] is −46%.
With `CC(=O)O[C@@]12CO[C@@H]1C[C@H](O)[C@@]1(C)C(=O)[C@H](O)C3=C(C)[C@@H](OC(=O)[C@H](OC(=O)[C@@H](F)CCCCN(C)C)[C@@H](NC(=O)OC(C)(C)C)c4ccccc4)C[C@@](O)([C@@H](OC(=O)c4ccccc4)[C@H]21)C3(C)C.O=S(=O)(O)O` [Compound 29, 2′-O-[6-(N,N-dimethyl)amino-2(S)-fluorohexanoyl]docetaxel sulfate], in data set [1], the “Tumor volume (mm^3) (D0)” value came to 114.7 ± 3.5 mm^3, the “Weight change (%) D6” value is reported as −15.8%, the “T/C (%) D20” value is −20% and the “Tumor volume (mm^3) (D20)” value is 52.4 ± 12.5 mm^3. Further, the “Tumor inhibitory percent (%) D20” value in data set [1] came out at 45%.
As for `CC(=O)O[C@@]12CO[C@@H]1C[C@H](O)[C@@]1(C)C(=O)[C@H](O)C3=C(C)[C@@H](OC(=O)[C@H](OC(=O)C(F)CCN(C)C)[C@@H](NC(=O)OC(C)(C)C)c4ccccc4)C[C@@](O)([C@@H](OC(=O)c4ccccc4)[C@H]21)C3(C)C.CS(=O)(=O)O` (stereo partly drawn) [Compound C6, 2′-O-[4-(N,N-dimethyl)amino-2(R,S)-fluorobutyryl]docetaxel methanesulfonate], the dissociation percent in data set [2] (2 min) worked out at 59.1%; in data set [2] (5 min), 93.3%; in data set [2] (10 min), 100%; in data set [3] (5 min) it was 76.8%; in data set [3] (20 min), 97.8%; in data set [3] (60 min), 100%. In addition, the “T/C (%) D20” value in data set [1] is −76%.
Regarding `CC(=O)O[C@@]12CO[C@@H]1C[C@H](O)[C@@]1(C)C(=O)[C@H](O)C3=C(C)[C@@H](OC(=O)[C@H](OC(=O)[C@H](F)CCN(C)C(C)C)[C@@H](NC(=O)OC(C)(C)C)c4ccccc4)C[C@@](O)([C@@H](OC(=O)c4ccccc4)[C@H]21)C3(C)C.Cl` [Compound 25, 2′-O-[4-(N-methyl-N-isopropyl)amino-2(R)-fluorobutyryl]docetaxel hydrochloride], the “T/C (%) D20” value in data set [1] was −44%.
The same measure, in the same setting: for `CCN(C)CCC(F)C(=O)OC(C(=O)OC1CC2(O)C(OC(=O)c3ccccc3)C3C4(OC(C)=O)COC4CC(O)C3(C)C(=O)C(O)C(=C1C)C2(C)C)C(NC(=O)OC(C)(C)C)c1ccccc1.CS(=O)(=O)O` [Compound 23, 2′-O-[4-(N-methyl-N-ethyl)amino-2(R)-fluorobutyryl]docetaxel methanesulfonate] the value was −62%.
With `CC(=O)O[C@@]12CO[C@@H]1C[C@H](O)[C@@]1(C)C(=O)[C@H](O)C3=C(C)[C@@H](OC(=O)[C@H](OC(=O)[C@@H](F)CCN(C)C)[C@@H](NC(=O)OC(C)(C)C)c4ccccc4)C[C@@](O)([C@@H](OC(=O)c4ccccc4)[C@H]21)C3(C)C.CS(=O)(=O)O` [Compound C5, 2′-O-[4-(N,N-dimethyl)amino-2(S)-fluorobutyryl]docetaxel methanesulfonate], the dissociation percent is 58.9% in data set [2] (2 min); 93.3% in data set [2] (5 min); 100% in data set [2] (10 min); 81.2% in data set [3] (5 min); 93.1% in data set [3] (20 min); 100% in data set [3] (60 min). Besides, the “T/C (%) D20” value in data set [1] is listed as −76%.
Consider `CC(=O)O[C@@]12CO[C@@H]1C[C@H](O)[C@@]1(C)C(=O)[C@H](O)C3=C(C)[C@@H](OC(=O)[C@H](OC(=O)[C@H](F)CCN(C)C)[C@@H](NC(=O)OC(C)(C)C)c4ccccc4)C[C@@](O)([C@@H](OC(=O)c4ccccc4)[C@H]21)C3(C)C.CS(=O)(=O)O` [Compound C4, 2′-O-[4-(N,N-dimethyl)amino-2(R)-fluorobutyryl]docetaxel methanesulfonate], for which the dissociation percent in data set [2] (2 min) was determined as 59.2%; in data set [2] (5 min), 93.4%; in data set [2] (10 min), 100%; in data set [3] (5 min), 81.6%; in data set [3] (20 min) it was 94.8%; in data set [3] (60 min), 100%. Further, the “T/C (%) D20” value in data set [1] was −77%.
`CC(=O)O[C@@]12CO[C@@H]1C[C@H](O)[C@@]1(C)C(=O)[C@H](O)C3=C(C)[C@@H](OC(=O)[C@H](OC(=O)C(F)CCCN(C)C)[C@@H](NC(=O)OC(C)(C)C)c4ccccc4)C[C@@](O)([C@@H](OC(=O)c4ccccc4)[C@H]21)C3(C)C.CS(=O)(=O)O` (stereo partly drawn) [Compound 28, 2′-O-[5-(N,N-dimethyl)amino-2(R,S)-fluorovaleryl]docetaxel methanesulfonate]: in data set [1], the “Tumor volume (mm^3) (D0)” value came to 118.2 ± 4.8 mm^3, the “Weight change (%) D6” value is given as −15.4%, the “T/C (%) D20” value was −28% and the “Tumor volume (mm^3) (D20)” value amounted to 41.5 ± 14.7 mm^3. In addition, the “Tumor inhibitory percent (%) D20” value in data set [1] came to 64%.
Take `CO[C@H]1C(=O)[C@]2(C)[C@@H](OC)C[C@H]3OC[C@@]3(OC(C)=O)[C@H]2[C@H](OC(=O)c2ccccc2)[C@]2(O)C[C@H](OC(=O)[C@H](OC(=O)C(F)CCN(C)C)[C@@H](NC(=O)OC(C)(C)C)c3ccccc3)C(C)=C1C2(C)C.CS(=O)(=O)O` (stereo partly drawn) [Compound C9, 2′-O-[4-(N,N-dimethyl)amino-2(R,S)-fluorobutyryl] cabazitaxel methanesulfonate]: the dissociation percent in data set [2] (2 min) was found to be 49.3%; in data set [2] (5 min), 88.6%; in data set [2] (10 min) it was 100%; in data set [3] (5 min), 81.2%; in data set [3] (20 min), 96.7%; in data set [3] (60 min), 100%. In addition, the “T/C (%) D20” value in data set [4] is on record as −66%.
`CC(=O)O[C@@]12CO[C@@H]1C[C@H](O)[C@@]1(C)C(=O)[C@H](O)C3=C(C)[C@@H](OC(=O)[C@H](OC(=O)C(CCN(C)C)C(F)F)[C@@H](NC(=O)OC(C)(C)C)c4ccccc4)C[C@@](O)([C@@H](OC(=O)c4ccccc4)[C@H]21)C3(C)C.Cl` (stereo partly drawn) [Compound 27, 2′-O-[4-(N,N-dimethyl)amino-2(R,S)-2-difluoromethylbutyryl]docetaxel hydrochloride]: in data set [1], the “T/C (%) D20” value is −37% and the “Tumor inhibitory percent (%) D20” value is 85%.
Turning to `CCN(CC)CCC(F)C(=O)OC(C(=O)OC1CC2(O)C(OC(=O)c3ccccc3)C3C4(OC(C)=O)COC4CC(O)C3(C)C(=O)C(O)C(=C1C)C2(C)C)C(NC(=O)OC(C)(C)C)c1ccccc1.O=C(O)C=CC(=O)O` [Compound 24, 2′-O-[4-(N,N-diethyl)amino-2(S)-fluorobutyryl]docetaxel maleate], in data set [1], the “T/C (%) D20” value was −52% and the “Tumor inhibitory percent (%) D20” value was found to be 120%.
